Reference: article PMC2873402, “Discovery of High-Affinity Protein Binding Ligands – Backwards” (PLoS ONE, 2010)
pKd: −log10 of the molar value.

Assays:
[1] = molecular target: AKT1 (Homo sapiens, UniProt P31749); assay: AKT1 binding site mapping by crosslinking and MS; set-up: N-terminal vector leader of pEXP5-NT (6xHis + TEV site by own knowledge of the vector); made in house; host or cells: Expressway Mini Cell-Free Expression System (in vitro translation); details: for region of AKT1 crosslinked: 10 µM peptide, 2.5 µM AKT1, 100 µM BS3-d0/d4 (1:1), trypsin, MALDI-TOF-MS; for likely binding site on AKT1: from relative intensity of fragments and proximity of lysines; for AKT1 lysine(s) likely cross-linked: surface-exposed lysines mapped on PDB 3CQU
AKT1, sequence (P31749 whole entry, the tested form may be a part): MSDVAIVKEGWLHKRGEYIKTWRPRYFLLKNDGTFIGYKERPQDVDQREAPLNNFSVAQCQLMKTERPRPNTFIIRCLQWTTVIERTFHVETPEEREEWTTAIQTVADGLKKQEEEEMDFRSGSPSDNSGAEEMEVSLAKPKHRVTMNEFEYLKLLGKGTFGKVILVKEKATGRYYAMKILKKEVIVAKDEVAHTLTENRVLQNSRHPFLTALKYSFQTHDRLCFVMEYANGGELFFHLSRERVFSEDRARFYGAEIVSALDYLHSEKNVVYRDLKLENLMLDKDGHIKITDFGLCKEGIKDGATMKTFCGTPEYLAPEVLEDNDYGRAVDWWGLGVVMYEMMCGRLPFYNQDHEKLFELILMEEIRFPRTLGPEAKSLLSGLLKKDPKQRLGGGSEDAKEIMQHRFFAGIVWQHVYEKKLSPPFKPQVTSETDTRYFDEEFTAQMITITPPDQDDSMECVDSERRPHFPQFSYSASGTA
Text: As an orthogonal assessment of whether the peptides bind different sites on AKT1, each peptide was crosslinked to AKT1 in vitro using a commercially available set of deuterated / non-deuterated crosslinkers (BS^3-(d0/d4)). The crosslinkers chemically conjugate primary amines that are in close proximity to one another (11.4 Å) and the crosslinked complex is then subjected to enzymatic digestion and analysis by mass spectrometry. Crosslinked peptides are identified by the presence of a pair of ions that are separated by 4 mass units indicating crosslinking with both non-deuterated and deuterated crosslinkers. Peptide 1 has two possible crosslinking sites (N-terminus and K at position 3) and peptide 2 has one possible crosslinking site at the N-terminus. A 10 µM solution of each peptide was added to 2.5 µM AKT1 and incubated for 1 hour prior to the addition of a 100 µM solution of a 1∶1 mixture of crosslinkers. After crosslinking, the mixture was digested with trypsin and analyzed by MALDI-TOF-MS. […] The location of each AKT1 fragment was mapped onto a crystal structure of residues 139–480 of AKT1 (PDB #3CQU) (Figure 4C).
10 µM of peptide 1 and peptide 2 were individually incubated with 2.5 µM of recombinant AKT1 (produced in house) in PBS buffer (200 uL total volume) for one hour, after which an equimolar ratio of BS^3-d0∶BS^3-d4 (Thermo Scientific, Rockford, IL) crosslinker was added for a total crosslinker concentration of 100 µM. The same concentration of crosslinker was added to a 200 µL control sample containing only 2.5 µM AKT1. Crosslinking was performed for one hour. After crosslinking, free peptide and crosslinker were removed from the mixture with a 30 kDa spin filter and at the same time the buffer was exchanged with 100 mM ammonium bicarbonate pH 8.0. Proteomics grade trypsin (Sigma-Aldrich, St. Louis, MO) was added to all samples at a ratio of 1∶30 (mol∶mol) Trypsin∶AKT1 and incubated overnight at 37°C. Digested samples were lyophilized and reconstituted in 5 µL acetonitrile∶H2O (1∶1) containing 0.1% trifluoroacetic acid and spotted on a MALDI target plate along with ∝-cyano-4-hydroxycinnamic acid MALDI matrix. Mass spectra were obtained on an Ultraflex-III MALDI TOF-TOF (Bruker, Billerica, MA) and analyzed in FlexAnalysis (Bruker, Billerica, MA).

[2] = molecular target: synbody variant in which the C-terminal Cys was replaced with a Lys-Biotin; assay: pull-down; IP: biotin synbody on streptavidin magnetic beads; ^35S-labeled AKT1 in the IVT mixture diluted from 41.5 nM to 80 pM (AKT1 about 3% of total protein); liquid scintillation counting; 1:1 fit in GraphPad Prism

^35S-labeled AKT1 produced by in vitro translation, sequence (P31749 whole entry): as the sequence (P31749 whole entry, the tested form may be a part) above

Row | Substance | region of AKT1 crosslinked [1] | likely binding site on AKT1 [1] | AKT1 lysine(s) likely cross-linked [1] | pKd [2]
1 | AHKVVPQRQIRHAYNRYGSG [peptide 1, 20-aa peptide arm of the synbody] | crosslinked to a region of AKT1 that spans the Protein Kinase (PK) and AGC Kinase domain | in a region of low homology between AKT1, AKT2, and AKT3 | ^419Lys | 
2 | FRGWAHIFFGPHVIYRGGSG [peptide 2, 20-aa peptide arm of the synbody] | crosslinked to multiple regions on AKT1 (Figure 4A, Figure 4B, Table S1), with the majority of crosslinking occurring in the PK domain | primary binding site for peptide 2 is likely on the PK domain and that a secondary binding site lies on the AGC domain | ^182Lys, ^276Lys, and ^481Lys | 
3 | ^35S-labeled AKT1 produced by in vitro translation (from UniProt P31749 1-480) (natural protein) |  |  |  | 8.31
